In US20240376056A1, “PHENYL ACETAMIDE BASED IL-17A MODULATORS AND USES THEREOF” (DiCE Alpha, Inc., priority 2021, published 2024):

Target: T1, IL-17A/A (Homo sapiens, UniProt Q16552)
T1 construct: purchased Genscript Z03228
T1 sequence (Q16552 24-155): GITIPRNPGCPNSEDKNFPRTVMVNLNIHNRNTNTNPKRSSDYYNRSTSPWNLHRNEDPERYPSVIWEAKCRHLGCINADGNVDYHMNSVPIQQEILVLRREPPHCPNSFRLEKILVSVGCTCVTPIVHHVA
Assay: HEK-Blue IL-17A/A inhibition assay (SEAP reporter)
Assay type: cell-based
Conditions: HEK-Blue cells (HEK 293 expressing IL-17RA, IL-17RC, Act1); IL-17A/A stimulation; 20 hours; SEAP read at A630; 4-parameter fit
Description: The HEK-Blue #NC108637 […]. Cells were grown and prepared for assays according to the manufacturer's instructions. This cell line consists of HEK 293 cells that were designed to expressed IL-17R^A, IL-17RC, and the ActI adapter molecule, the combination of which. when stimulated by IL-17A/A activates a NFtcB promoter and drives expression of a recombinant Secreted Alkaline Phosphatase (SEAP) geneprotein. Media from the cells is then added to a development reagent (Quanti-Blue Substrate, Fisher #NC971 1613), and read at A630.
Compounds were titrated in DMSO. with a top final compound concentration of 10 uM, 1 uM, or 0.3 uM, and added to the cells immediately before adding IL-17A/A (Genscript #Z03228). The cells, compound, and IL-17A/A were then incubated for 20 hours before media was removed for SEAP analysis. The resulting inhibition curve was then analyzed using Graphpad Prism 7.0, and IC50 values were determined using a 4-parameter nonlinear fit. DMSO was added to a universal final concentration of 0.1% to optimze background.

| Structure (SMILES) | IC50 [nM] |
| --- | --- |
| CC(C(=O)NCC(F)(F)F)c1cc(F)c(NC(=O)[C@@H](NC(=O)c2ccnn2C(C)C)C2CCC(F)(F)CC2)cc1OC(F)(F)F (single isomer, unassigned) [Compound 219] | 100 to 1000 |
| CC(C(=O)NCC(F)(F)F)c1cc(F)c(NC(=O)[C@@H](NC(=O)c2ccnn2C(C)C)C2CCC(F)(F)CC2)cc1OC(F)(F)F (single isomer, unassigned) [Compound 220] | > 1000 |
| CCn1nccc1C(=O)N[C@H](C(=O)Nc1cc(C(F)(F)F)c(C(C)C(=O)NC(CO)C(F)(F)F)cc1F)C(C1CC1)C1CC1 (single isomer, unassigned) [Compound 240] | < 100 |
| CCn1nccc1C(=O)N[C@H](C(=O)Nc1cc(C(F)(F)F)c(C(C)C(=O)NC(CO)C(F)(F)F)cc1F)C(C1CC1)C1CC1 (single isomer, unassigned) [Compound 241] | > 1000 |
| CCn1nccc1C(=O)N[C@H](C(=O)Nc1ccc(CC(=O)N(C)CC(F)(F)F)cc1F)C1CCCCCC1 [Compound 1, (S)-N-(1-cycloheptyl-2-((2-fluoro-4-(2-(methyl(2,2,2-trifluoroethyl)amino)-2-oxoethyl)phenyl)amino)-2-oxoethyl)-1-ethyl-1H-pyrazole-5-carboxamide] | 100 to 1000 |
| CCn1nccc1C(=O)N[C@H](C(=O)Nc1ccc(CC(=O)NCC(F)(F)F)cc1F)C1CCCCCC1 [Compound 2, (S)-N-(1-cycloheptyl-2-((2-fluoro-4-(2-oxo-2-((2,2,2-trifluoroethyl)amino)ethyl)phenyl)amino)-2-oxoethyl)-1-ethyl-1H-pyrazole-5-carboxamide] | 100 to 1000 |
| CCn1nccc1C(=O)N[C@H](C(=O)Nc1ccc(CC(=O)N(C)C2(C(F)(F)F)CC2)cc1F)C1CCCCCC1 [Compound 5, (S)-N-(1-cycloheptyl-2-((2-fluoro-4-(2-(methyl(1-(trifluoromethyl)cyclopropyl)amino)-2-oxoethyl)phenyl)amino)-2-oxoethyl)-1-ethyl-1H-pyrazole-5-carboxamide] | > 1000 |
| CCn1nccc1C(=O)N[C@H](C(=O)Nc1ccc(C(C)(C)C(=O)NCC(F)(F)F)cc1F)C1CCCCCC1 [Compound 7, (S)-N-(1-cycloheptyl-2-((2-fluoro-4-(2-methyl-1-oxo-1-((2,2,2-trifluoroethyl)amino)propan-2-yl)phenyl)amino)-2-oxoethyl)-1-ethyl-1H-pyrazole-5-carboxamide] | 100 to 1000 |
| CCn1nccc1C(=O)N[C@H](C(=O)Nc1ccc([C@H](C)C(=O)N(CC2CC2)CC(F)(F)F)cc1F)C1CCCCCC1 [Compound 8, N-((S)-1-cycloheptyl-2-((4-((S)-1-((cyclopropylmethyl)(2,2,2-trifluoroethyl)amino)-1-oxopropan-2-yl)-2-fluorophenyl)amino)-2-oxoethyl)-1-ethyl-1H-pyrazole-5-carboxamide] | < 100 |
| CCn1nccc1C(=O)N[C@H](C(=O)Nc1ccc([C@H](C)C(=O)N(CCO)CC(F)(F)F)cc1F)C(C1CC1)C1CC1 [Compound 10, N-((S)-1,1-dicyclopropyl-3-((2-fluoro-4-((S)-1-((2-hydroxyethyl)(2,2,2-trifluoroethyl)amino)-1-oxopropan-2-yl)phenyl)amino)-3-oxopropan-2-yl)-1-ethyl-1H-pyrazole-5-carboxamide] | 100 to 1000 |
| CCn1nccc1C(=O)N[C@H](C(=O)Nc1ccc([C@H](C)C(=O)NC(CCO)C(F)(F)F)cc1F)C(C1CC1)C1CC1 (stereo partly drawn) [Compound 12, N-((2S)-1,1-dicyclopropyl-3-((2-fluoro-4-((2S)-1-oxo-1-((1,1,1-trifluoro-4-hydroxybutan-2-yl)amino)propan-2-yl)phenyl)amino)-3-oxopropan-2-yl)-1-ethyl-1H-pyrazole-5-carboxanude] | 100 to 1000 |
| CCn1nccc1C(=O)N[C@H](C(=O)Nc1ccc([C@H](C)C(=O)N2CC(F)(F)C2)cc1F)C(C1CC1)C1CC1 [Compound 15, N-((S)-1,1-dicyclopropyl-3-((4-((S)-1-(3,3-difluoroazetidin-1-yl)-1-oxopropan-2-yl)-2-fluorophenyl)amino)-3-oxopropan-2-yl)-1-ethyl-1H-pyrazole-5-carboxamide] | 100 to 1000 |
| CC(C)n1nccc1C(=O)N[C@H](C(=O)Nc1ccc([C@H](C)C(=O)NCC(F)F)cc1F)C(C1CC1)C1CC1 [Compound 17, N-((S)-1,1-dicyclopropyl-3-((4-((S)-1-((2,2-difluoroethyl)amino)-1-oxopropan-2-yl)-2-fluorophenyl)amino)-3-oxopropan-2-yl)-1-isopropyl-1H-pyrazole-5-carboxanide] | 100 to 1000 |

Continued, values first:

| IC50 [nM] | Structure (SMILES) |
| --- | --- |
| 100 to 1000 | Cc1cc(NC(=O)[C@@H](NC(=O)c2ccnn2C(C)C)C(C2CC2)C2CC2)c(F)cc1C(C)C(=O)N1CC(O)CC1C(F)(F)F (single isomer, unassigned) [Compound 200] |
| < 100 | COc1cc(NC(=O)[C@@H](NC(=O)c2ccnn2C(C)C)C(C2CC2)C2CC2)c(F)cc1C(C)C(=O)N1CC(O)CC1C(F)(F)F (single isomer, unassigned) [Compound 212] |
| 100 to 1000 | COc1cc(NC(=O)[C@@H](NC(=O)c2ccnn2C(C)C)C(C2CC2)C2CC2)c(F)cc1C(C)C(=O)N1CC(O)CC1C(F)(F)F (single isomer, unassigned) [Compound 213] |
| 100 to 1000 | CC(C(=O)NC1CCC1(F)F)c1cc(F)c(NC(=O)[C@@H](NC(=O)c2ccnn2C(C)C)C(C2CC2)C2CC2)cc1C(F)(F)F (single isomer, unassigned) [Compound 230] |
| 100 to 1000 | CC(C(=O)NC1CCC1(F)F)c1cc(F)c(NC(=O)[C@@H](NC(=O)c2ccnn2C(C)C)C(C2CC2)C2CC2)cc1C(F)(F)F (single isomer, unassigned) [Compound 231] |
| > 1000 | CC(C(=O)NCC(F)(F)F)c1cc(F)c(NC(=O)[C@@H](NC(=O)c2ccnn2C(C)C)C(C2CC2)C2CC2)cc1Nc1ccccn1 (single isomer, unassigned) [Compound 261] |
| > 1000 | CC(C(=O)NCC(F)(F)F)c1cc(F)c(NC(=O)[C@@H](NC(=O)c2ccnn2C(C)C)C(C2CC2)C2CC2)cc1Nc1ccccn1 (single isomer, unassigned) [Compound 262] |
| > 1000 | CCn1nccc1C(=O)N[C@H](C(=O)Nc1ccc([C@H](C)C(=O)N2CCC[C@@H]2C(F)(F)F)cc1F)C(C1CC1)C1CC1 [Compound 9, N-((S)-1,1-dicyclopropyl-3-((2-fluoro-4-((S)-1-oxo-1-((R)-2-(trifluoromethyl)pyrrolidin-1-yl)propan-2-yl)phenyl)amino)-3-oxopropan-2-yl)-1-ethyl-1H-pyrazole-5-carboxamide] |
| < 100 | CCn1nccc1C(=O)N[C@H](C(=O)Nc1ccc([C@H](C)C(=O)N2CCC[C@H]2C(F)(F)F)cc1F)C(C1CC1)C1CC1 [Compound 11, N-((S)-1,1-dicyclopropyl-3-((2-fluoro-4-((S)-1-oxo-1-((S)-2-(trifluoromethyl)pyrrolidin-1-yl)propan-2-yl)phenyl)amino)-3-oxopropan-2-yl)-1-ethyl-1H-pyrazole-5-carboxamide] |
| > 1000 | CC(C)n1nccc1C(=O)N[C@H](C(=O)Nc1ccc([C@H](C)C(=O)NC2CC2)cc1F)C(C1CC1)C1CC1 [Compound 16, N-((S)-1,1-dicyclopropyl-3-((4-((S)-1-(cyclopropylamino)-1-oxopropan-2-yl)-2-fluorophenyl)amino)-3-oxopropan-2-yl)-1-isopropyl-1H-pyrazole-5-carboxamide] |
| 100 to 1000 | CNCCN(CC(F)(F)F)C(=O)[C@@H](C)c1ccc(NC(=O)[C@@H](NC(=O)c2ccnn2C(C)C)C(C2CC2)C2CC2)c(F)c1 [Compound 22, N-((S)-1,1-dicyclopropyl-3-((2-fluoro-4-((S)-1-((2-(methylamino)ethyl)(2,2,2-trifluoroethyl)amino)-1-oxopropan-2-yl)phenyl)amino)-3-oxopropan-2-yl)-1-isopropyl-1H-pyrazole-5-carboxamide] |
| 100 to 1000 | [2H]C([2H])([2H])N(CC(F)(F)F)C(=O)[C@@H](C)c1ccc(NC(=O)[C@@H](NC(=O)c2ccnn2C(C)C)C(C2CC2)C2CC2)c(F)c1 [Compound 23, N-((S)-1,1-dicyclopropyl-3-((2-fluoro-4-((S)-1-((methyl-d3)(2,2,2-trifluoroethyl)amino)-1-oxopropan-2-yl)phenyl)amino)-3-oxopropan-2-yl)-1-isopropyl-1H-pyrazole-5-carboxamide] |
| 100 to 1000 | CC(C)n1nccc1C(=O)N[C@H](C(=O)Nc1ccc([C@H](C)C(=O)N2CCN(CC(F)(F)F)CC2)cc1F)C(C1CC1)C1CC1 [Compound 24, N-((S)-1.1-dicyclopropyl-3-((2-fluoro-4-((S)-1-oxo-1-(4-(2,2,2-trifluoroethyl)piperazin-1-yl)propan-2-yl)phenyl)amino)-3-oxopropan-2-yl)-1-isopropyl-1H-pyrazole-5-carboxamide] |
| 100 to 1000 | CC(C)n1nccc1C(=O)N[C@H](C(=O)Nc1ccc([C@H](C)C(=O)NC2CC2C(F)F)cc1F)C(C1CC1)C1CC1 (stereo partly drawn) [Compound 25, N-((2S)-1.1-dicyclopropyl-3-((4-((2S)-1-((2-(difluoromethyl)cyclopropyl)amino)-1-oxopropan-2-yl)-2-fluorophenyl)amino)-3-oxopropan-2-yl)-1-isopropyl-1H-pyrazole-5-carboxamide] |
